Earlier results, collected in paper PMC12833858 (Journal of Medicinal Chemistry, 2026).

Assays:
[1] = molecular target: T1, Aurora A (Homo sapiens, UniProt O14965); parameters: method as in Adhikari et al.; conditions: isothermal titration calorimetry, n = 4; ref Adhikari et al.; read-out: KD Aurora A (ITC)
T1 sequence (O14965 1-403): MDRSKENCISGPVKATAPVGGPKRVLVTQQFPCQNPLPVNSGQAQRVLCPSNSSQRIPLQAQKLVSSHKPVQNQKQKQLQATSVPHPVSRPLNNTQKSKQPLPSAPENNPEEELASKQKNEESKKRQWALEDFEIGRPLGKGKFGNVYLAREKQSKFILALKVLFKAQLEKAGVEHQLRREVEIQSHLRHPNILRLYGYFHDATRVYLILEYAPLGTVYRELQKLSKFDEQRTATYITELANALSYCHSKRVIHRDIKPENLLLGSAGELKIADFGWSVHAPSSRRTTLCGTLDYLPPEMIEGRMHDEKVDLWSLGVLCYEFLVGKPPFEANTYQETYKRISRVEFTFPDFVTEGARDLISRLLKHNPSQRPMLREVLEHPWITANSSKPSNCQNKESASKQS

[2] = molecular target: T1, Aurora A; parameters: expressed in transfected cells; conditions: reported value, HiBiT assay in MV4-11 pediatric leukemia cells

COc1cc(Nc2ncc3c(n2)-c2ccc(Cl)cc2C(c2c(F)cccc2OC)=NC3)ccc1C(=O)NCCOCCOCCNC(=O)COc1cccc2c1C(=O)N(C1CCC(=O)NC1=O)C2=O (centres unmarked) [JB170]
Kd [1]: 375 ± 22 nM
DC50 [2]: 28 nM
